The test relates to A549 cells. Briefly: Cell migration assay (24-well transwell, laminin). Type of test: cell-based, human. The settings on record: Homo sapiens, A549, 6 h, laminin 10 μg/mL in lower well, test compounds 0.39˜100 μM, migrated cells counted, read-out: Inhibitory activity against cell migration. A digest of the protocol:
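Serum-free RPMI1640 transwell (8.0 μm pore) with laminin (10 μg/mL) in lower well; A549 cells (1×10^6 cells/mL) and compounds (0.39–100 μM) in both chambers, 6 h at 37 °C. Hematoxylin-stained cells on membrane underside counted at three fields (×20); IC50 by non-linear regression.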

For `COc1ccc(CCN(c2nc3cc(F)cc(F)c3s2)C(C)c2ccc(C(=O)O)cc2)cc1F` (centres unmarked) [Example 122, 4-(1-{(5,7-difluorobenzo[d]thiazol-2-yl)[2-(3-fluoro-4-methoxyphenyl)ethyl]amino}ethyl)benzoic acid], the IC50 is under 1 µM. The same measure for `COc1ccc(CCN(c2nc3cc(C(F)(F)F)ccc3s2)C(C)c2ccc(C(=O)O)cc2)cc1` (centres unmarked) [Example 124, 4-(1-{[2-(4-methoxyphenyl)ethyl][5-(trifluoromethyl)benzo[d]thiazol-2-yl]amino}ethyl)benzoic acid]: under 1 µM.

For the origin of these results see US10383859B2, “Benzo[d]thiazole derivative or salt thereof, and pharmaceutical composition including same” (Yuhan Corporation, priority 2016, dated 2019).
